Results on 5 compounds are retold here after BindingDB's records for doi:10.1021/jm9604437 (Hoechst Marion Roussel, 1996).

For orientation: IC50 means the concentration that gives 50% inhibition. A high value points to lower potency.

The target of assay [1] is Dihydroorotate dehydrogenase (quinone), mitochondrial (Mus musculus, UniProt O35435). The experiment in a line: Inhibitory concentration tested on enzyme dihydroorotate dehydrogenase in mouse.
Assay [2] deals with Dihydroorotate dehydrogenase (quinone), mitochondrial (Rattus norvegicus, UniProt Q63707). The experiment in a line: Inhibitory concentration tested against enzyme dihydroorotate dehydrogenase in rat.

The structures appear in SMILES notation. Where only a bound is given, the exact number is not on record here.

Chain of Dihydroorotate dehydrogenase (quinone), mitochondrial (Rattus norvegicus, UniProt Q63707) (Q63707 whole entry): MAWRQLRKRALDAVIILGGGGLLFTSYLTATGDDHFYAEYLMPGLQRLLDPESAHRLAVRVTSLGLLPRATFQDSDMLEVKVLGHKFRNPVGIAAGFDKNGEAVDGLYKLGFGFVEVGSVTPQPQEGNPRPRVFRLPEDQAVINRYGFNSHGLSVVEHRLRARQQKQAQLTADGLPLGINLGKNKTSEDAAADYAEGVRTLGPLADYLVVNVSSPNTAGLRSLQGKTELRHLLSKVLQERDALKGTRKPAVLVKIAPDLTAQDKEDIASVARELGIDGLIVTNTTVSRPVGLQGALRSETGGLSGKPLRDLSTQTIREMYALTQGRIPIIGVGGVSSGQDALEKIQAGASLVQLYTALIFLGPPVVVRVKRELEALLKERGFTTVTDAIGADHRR
Chain of Dihydroorotate dehydrogenase (quinone), mitochondrial (Mus musculus, UniProt O35435) (O35435 whole entry): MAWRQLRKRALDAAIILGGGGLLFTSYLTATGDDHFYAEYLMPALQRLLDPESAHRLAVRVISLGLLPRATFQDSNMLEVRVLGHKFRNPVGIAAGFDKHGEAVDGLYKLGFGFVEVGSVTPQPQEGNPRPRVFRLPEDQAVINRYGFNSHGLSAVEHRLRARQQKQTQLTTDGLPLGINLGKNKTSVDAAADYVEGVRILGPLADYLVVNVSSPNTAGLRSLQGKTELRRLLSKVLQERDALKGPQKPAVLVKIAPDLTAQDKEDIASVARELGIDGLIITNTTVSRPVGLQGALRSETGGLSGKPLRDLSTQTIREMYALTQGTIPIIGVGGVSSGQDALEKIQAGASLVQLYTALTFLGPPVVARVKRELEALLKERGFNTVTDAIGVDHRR

In assay [1], `CC=CC(=O)C(C#N)C(=O)Nc1ccc(C(F)(F)F)cc1` (centres undefined) came in with a half-maximal inhibitory concentration (IC50) of 0.063 µM.

Turning to `CN1CCCC1C(=O)C(C#N)C(=O)Nc1ccc(C(F)(F)F)cc1` (centres undefined) [(Z)-2-Cyano-3-hydroxy-3-(1-methyl-pyrrolidin-2-yl)-N-(4-trifluoromethyl-phenyl)-acrylamide], the IC50 in assay [1] and in assay [2] was > 100 µM in each case.

Take `N#CC(C(=O)Nc1ccc(C(F)(F)F)cc1)C(=O)c1ccc(C(F)(F)F)cc1` (centres undefined) [2-Cyano-3-hydroxy-3,N-bis-(4-trifluoromethyl-phenyl)-acrylamide]: the half-maximal inhibitory concentration (IC50) in assay [1] and in assay [2] was > 100 µM each time.

For the compound `N#CC(C(=O)Nc1ccc(C(F)(F)F)cc1)C(=O)C1CCCN1` (centres undefined) [(Z)-2-Cyano-3-hydroxy-3-pyrrolidin-2-yl-N-(4-trifluoromethyl-phenyl)-acrylamide], the IC50 in assay [1] and in assay [2] was > 100 µM each time.

For `N#CC(C(=O)Nc1ccccc1C(F)(F)F)C(=O)C1CC1` (centres undefined) [(Z)-2-Cyano-3-cyclopropyl-3-hydroxy-N-(2-trifluoromethyl-phenyl)-acrylamide], the IC50 in assay [1] and in assay [2] was > 100 µM each time.
